Measurements from ChEMBL document CHEMBL1156895 (Bioorg Med Chem Lett, 2010).
Activity calls are given as the source filed them. The calls are words filed in the database; no cut-off is given here.

What was measured:
[1] = Induction of NO release in phosphate buffer at pH 7.4; assay type: physicochemical
[2] = Induction of NO release in presence of 5 mM L-cysteine; assay type: physicochemical
Rattus norvegicus [3] = experiment: Antiinflammatory activity in po dosed rat assessed as inhibition of carrageenan-induced paw edema; assay type: functional
[4] = molecular target: T1, Prostaglandin G/H synthase 1 (Ovis aries, UniProt P05979)
T1 sequence (P05979 whole entry): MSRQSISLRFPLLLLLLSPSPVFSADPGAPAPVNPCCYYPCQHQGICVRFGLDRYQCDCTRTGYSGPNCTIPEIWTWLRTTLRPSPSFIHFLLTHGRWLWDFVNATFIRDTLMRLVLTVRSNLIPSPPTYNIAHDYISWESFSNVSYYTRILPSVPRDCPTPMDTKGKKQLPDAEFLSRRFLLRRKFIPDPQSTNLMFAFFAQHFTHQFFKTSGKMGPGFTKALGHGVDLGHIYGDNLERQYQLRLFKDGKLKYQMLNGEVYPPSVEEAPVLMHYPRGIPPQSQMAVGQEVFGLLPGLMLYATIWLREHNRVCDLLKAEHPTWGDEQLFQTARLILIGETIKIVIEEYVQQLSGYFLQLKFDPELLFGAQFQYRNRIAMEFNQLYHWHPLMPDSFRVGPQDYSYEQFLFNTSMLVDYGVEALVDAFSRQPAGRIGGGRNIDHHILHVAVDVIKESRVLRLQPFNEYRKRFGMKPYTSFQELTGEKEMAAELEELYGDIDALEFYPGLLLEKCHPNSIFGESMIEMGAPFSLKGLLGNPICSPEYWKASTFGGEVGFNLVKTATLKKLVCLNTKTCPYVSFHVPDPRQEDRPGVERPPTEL
Description: Inhibition of ovine COX1 by enzyme immunoassay

Rattus norvegicus [5] = species: Rattus norvegicus; experiment: animal or person; conditions: po, read-out: INH
Rattus norvegicus [6] = species: Rattus norvegicus; conditions: 100 mg/kg
[7] = molecular target: T2, Prostaglandin G/H synthase 1 (Ovis aries) (UniProt P05979); experiment: Inhibition of ovine COX1 at 100 uM by enzyme immunoassay
T2 sequence (whole entry): T1 sequence (P05979 whole entry)

[8] = Selectivity ratio of IC50 for ovine COX1 to IC50 for human recombinant COX2

SMILES	Activity [1]	Activity [2]	ED50 (Rattus norvegicus [3])	IC50 [4]	inhibition in vivo at 100 mg/kg (Rattus norvegicus [5])	inhibition (Rattus norvegicus [6])	inhibition [7]	Ratio IC50 [8]
CS(=O)(=O)c1ccc(-n2nc(C(F)(F)F)cc2C2=CCN(CCCCO[N+](=O)[O-])CC2)cc1	3.1%	3.8%	118 mg/kg	34.7 µM				
O=[N+]([O-])OCC(CO[N+](=O)[O-])O[N+](=O)[O-] [NITROGLYCERIN]	2.8%	10.1%						
NS(=O)(=O)c1ccc(-n2nc(C(F)(F)F)cc2C2CCN(CCCCO[N+](=O)[O-])CC2)cc1	2.4%	3.1%		19.8 µM	9%			
NS(=O)(=O)c1ccc(-n2nc(C(F)(F)F)cc2C2=CCN(CCCCO[N+](=O)[O-])CC2)cc1	5.8%	7.1%		16.2 µM		inactive		
CC(C)Cc1ccc(C(C)C(=O)O)cc1 (stereo unspecified) [IBUPROFEN]			67.4 mg/kg					
CS(=O)(=O)c1ccc(-n2nc(C(F)(F)F)cc2C2CCN(CCCCO[N+](=O)[O-])CC2)cc1	3.8%	8.4%	132 mg/kg	> 100 µM			inactive	> 6
